Results as given in patent US4313944A, “Cycloheptindoles, compositions and use” (Roussel Uclaf, priority 1980, dated 1982).
Counter-ions that a name gives are not always drawn.

What was measured:
[1] = system: nigrostriatal dopaminergic bundle (6-hydroxydopamine unilateral lesion); experiment: Rotation behavior after unilateral injury of nigrostriatal bundle; type: in vivo, male rats; conditions: rats, intraperitoneal
Description: A. Rotation behavior after unilateral injury of nigrostriatal bundle
The unilateral lesion was effected with male rats weighing about 220 g by unilateral injection into nigrostriatal dopaminergic bundle of 8 μg of 6-hydroxydopamine in a solution of 2 μg per μl by the method of Ungerstedt [Acta. Physiol. Scand., Vol. 82 (1971), supp. 367, p. 69-93]. In the animals, the direct dopaminergic agonists such as apomorphine administered generally induces a rotating behavior in the contralateral direction to the injured side. The test compounds were administered more than 5 weeks after the lesion and the rats were placed in an automatic rotometer which determine the number of rotations effected by each animal in 2 directions.
The products of Examples 1, 2 and 3 were intraperitoneally administered and the product of Example 1 provoked 337±99 contralateral rotations at a dose of 5 mg/kg, product of Example 2 provoked 364±50 contralateral rotations at a dose of 1 mg/kg and the product of Example 3 provoked 657±205 contralateral rotations at a dose of 0.1 mg/kg.

mice = experiment: Acute toxicity; type: in vivo; conditions: oral, maximum dose which did not cause mortality
male mice = experiment: Hypobare anoxia study; type: in vivo; conditions: oral, 30 minutes before test, 90 mm Hg
Description: Groups of 10 male mice weighing about 20 to 22 g were not fed for 5 hours and were placed in a hermetically sealed enclosure with a pressure of 90 mm Hg maintained by a pump to determine the time of their survival. […] The results of Table II show the increase of survival time expressed as a percentage of control animals.

dopaminergic receptors = biological target: T1, dopaminergic receptors (Rattus norvegicus, UniProt P61169); experiment: Affinity for dopaminergic receptors (inhibition of spiroperidol 3H fixation); type: binding; conditions: for fixation to dopaminergic receptors (in words): results of Table I; for IC50: spiroperidol 3H, rat striated bodies, 37° C., pH 7.3, 20 minutes, read-out: 50% inhibiting concentration
T1 construct: from tissue; host or cells: rat striatum (striated bodies), crude membrane preparation
Description: B. Affinity for dopaminergic receptors
The striated bodies taken from the brains of 6 male rats weighing about 150 g were homogenized at one 20th (weight/volume) in 0.32 M sucrose and the homogenized mixture was centrifuged at 1000 g for 10 minutes at 0° C., the surnageant was centrifuged at 30,000 g for 15 minutes at 4° C. The culot was taken up in 25 ml of buffered Tris HCl 50 mM with a pH of 7.7 and the mixture was centrifuged at 30,000 g for 15 minutes at 4° C. The new culot was taken up in 50 ml of buffered Krebs Tris HCl with a pH of 7.3 and the suspension was preincubated at 37° C. for 10 minutes and was then incubated for 20 minutes in a water bath at 37° C. in the presence of spiroperidol 3H, alone or with an excess of haloperidol or with increasing units of the product being tested. The incubated suspensions were filtered with Whatman GF/C and the filters were washed 3 times with 5 ml of buffered Tris HCl 50 mM. The radioactivity of the filters was measured by liquid scintillation and the curve of percentage of fixation of spiroperidol 3H as a function of concentration of test product was determined.

[2] = system: ulcers in the stomachs of rats; experiment: Antiulcerous activity (Shay ulcers by ligature of pylore); type: in vivo; conditions: oral, about 16 hours after treatment
Excerpt: The technique used is described by Shay et al [Gastroenterology, Vol. 5 (1945), p. 43]. Ulcers were induced in the stomachs of rats by ligature of pylore. The animals were anesthesized with ether and a longitudinal incision of about 1 cm was made beneath the sternum, the glandular part of the stomach and the duodenum were taken out and a ligature was placed a few mm below the pylore. The muscular surface was left as it was and the skin was sutured by 2 clamps.
The animals received orally immediately after a dispersive or the test product in a volume of 0.5 ml/100 g and were kept without food or water until they were killed by carotidinal bleeding which was about 16 hours after treatment. Before removal of the stomach, a ligature was placed above the […]. The gastric liquid was collected to measure the pH and the stomach was then opened by a large curve, was rinsed with physiological serum and was spead out on millimetric paper for examination with a binocular lens. The gravity of the lesions was macroscopically evaluated on a scale of 0 to 4 for each stomach to determine for each group of rats the average intensity of ulcerations.

T1 sequence (P61169 whole entry): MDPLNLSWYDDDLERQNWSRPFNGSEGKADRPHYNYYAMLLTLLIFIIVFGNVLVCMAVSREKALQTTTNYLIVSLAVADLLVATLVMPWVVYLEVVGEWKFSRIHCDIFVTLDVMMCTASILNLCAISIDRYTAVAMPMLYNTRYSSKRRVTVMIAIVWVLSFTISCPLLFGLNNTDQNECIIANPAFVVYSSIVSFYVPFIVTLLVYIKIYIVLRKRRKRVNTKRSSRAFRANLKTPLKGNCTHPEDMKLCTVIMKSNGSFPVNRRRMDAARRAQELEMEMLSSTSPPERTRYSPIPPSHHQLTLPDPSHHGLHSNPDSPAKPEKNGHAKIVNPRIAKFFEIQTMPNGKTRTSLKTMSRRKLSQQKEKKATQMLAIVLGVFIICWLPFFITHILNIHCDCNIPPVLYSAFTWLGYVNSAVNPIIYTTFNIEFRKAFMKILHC

SMILES	DL0 (mice) [mg/kg]	% of increase of survival time (male mice; dose 5 mg/kg) [%]	% of increase of survival time (male mice; dose 25 mg/kg) [%]	fixation to dopaminergic receptors (in words) (dopaminergic receptors)	IC50 (dopaminergic receptors) [nM]	other results
CCCN1CCO[C@@H]2c3cccc4[nH]cc(c34)CC[C@H]21 (relative stereo) [Example 3, (7a-R,S-trans)-4,6,7,7a,8,9,10,11a-octahydro-8-propyl-[1,4]-oxazino-[2',3'-4,5]cyclohept[1,2,3-c,d]indole hydrochloride]	100	102	86	do fix dopaminergic receptors	270	contralateral rotations ([1]; 0.1 mg/kg): 657±205 contralateral rotations; % of increase of survival time (male mice; dose 1 mg/kg): 3%; % protection against ulceration ([2]; dose 5 mg/kg): 51%; % protection against ulceration ([2]; dose 25 mg/kg): 73%
CCCN1CCO[C@@H]2c3cccc4[nH]c(Br)c(c34)CC[C@H]21 (relative stereo) [Example 4, (7a-R,S-trans) 5-bromo-4,6,7,7a,8,9,10,11a-octahydro-8-propyl-[1,4]-oxazino-[2',3'-4,5]cyclohept[1,2,3-c,d]indole hydrochloride]	> 1000					
CCCN1CCO[C@@H]2c3cccc4c3c(cn4C)CC[C@H]21 (relative stereo) [Example 5, (7a-R,S-trans) 4,6,7,7a,8,9,10,11a-octahydro-4-methyl-8-propyl-[1,4]-oxazino-[2',3'-4,5]cyclohept[1,2,3-c,d]indole hydrochloride]	200					
CN1CCO[C@@H]2c3cccc4[nH]cc(c34)CC[C@H]21 (relative stereo) [Example 2, (7a-R,S-trans) 8-methyl-4,6,7,7a,8,9,10,11a-octahydro-[1,4]-oxazino-[2',3'-4,5]cyclohept[1,2,3-c,d]indole hydrochloride]	100	30	64	do fix dopaminergic receptors	950	contralateral rotations ([1]; 1 mg/kg): 364±50 contralateral rotations
c1cc2c3c(c[nH]c3c1)CC[C@H]1NCCO[C@H]21 (relative stereo) [Example 1, (7a R,S-trans)-4,6,7,7a,8,9,10,11a-octahydro-[1,4]-oxazino [2',3'-4,5]-cyclohept[1,2,3-c,d]-indole hydrochloride]	200			do fix dopaminergic receptors	10000	contralateral rotations ([1]; 5 mg/kg): 337±99 contralateral rotations; % of increase of survival time (male mice; dose 2 mg/kg): 14%; % of increase of survival time (male mice; dose 10 mg/kg): 51%; % of increase of survival time (male mice; dose 50 mg/kg): 145%
